From PMC7582192, “Targeting N-myristoylation for therapy of B-cell lymphomas” (Nature Communications, 2020)

Target: T1, Lyn (Homo sapiens, UniProt P07948)
T1 construct: endogenous Lyn in BL2 cells
Assay: western blot of P-Lyn (Y396) in anti-IgM stimulated BL2 cells, […] for […] h
Format: cell-based

T1 sequence (P07948 2-512): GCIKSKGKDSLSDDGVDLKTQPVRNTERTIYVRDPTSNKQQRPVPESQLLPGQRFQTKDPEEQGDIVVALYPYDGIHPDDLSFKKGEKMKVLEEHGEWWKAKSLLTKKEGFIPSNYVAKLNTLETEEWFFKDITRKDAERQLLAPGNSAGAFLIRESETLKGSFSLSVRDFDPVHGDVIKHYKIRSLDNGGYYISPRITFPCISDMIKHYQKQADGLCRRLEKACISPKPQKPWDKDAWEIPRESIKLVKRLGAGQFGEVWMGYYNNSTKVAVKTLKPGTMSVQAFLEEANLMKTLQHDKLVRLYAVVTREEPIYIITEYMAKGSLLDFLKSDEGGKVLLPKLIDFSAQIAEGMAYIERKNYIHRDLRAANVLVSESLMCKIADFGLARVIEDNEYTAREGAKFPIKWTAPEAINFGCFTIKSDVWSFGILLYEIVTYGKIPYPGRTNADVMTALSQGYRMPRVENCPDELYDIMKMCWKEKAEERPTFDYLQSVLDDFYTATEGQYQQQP

Compound: Cc1nc(Nc2ncc(C(=O)Nc3c(C)cccc3Cl)s2)cc(N2CCN(CCO)CC2)n1 [dasatinib]
- western blot of P-Lyn (Y396) in anti-IgM stimulated BL2 cells, 0.1 or 1.0 μM for: Dasatinib and ibrutinib selectively inhibited their respective targets as measured using anti-P-Lyn, anti-P-SFKs, and anti-P-BTK antibodies
